Test system: Osteoclast precursor cells
Test: Osteoclast differentiation assay (acid phosphatase readout)
Assay type: cell-based
Conditions: RANKL and M-CSF
Protocol: Further, an osteoclast differentiation assay is used to assess the efficacy of Fms inhibitors for treating bone disease such as osteoarthritis. On day 0, Osteoclast Medium BulletKit (Lonza catalog #PT-8001, containing Media, FBS, L-Glutamine, PenStrep, RANKL, and M-CSF) media is thawed and the FBS, L-glutamine and PenStrep from the kit is added to 100 mL of Osteoclast Precursor Basal medium to provide the Osteoclast Precursor Growth Medium (OPGM). This is warmed to 37° C. Osteoclast precursor cells (Lonza catalog #2T-110) frozen in cryovial are warmed to 37° C. and transferred to a 50 mL conical tube. The cryovial is rinsed with OPGM and added dropwise to the conical tube of cells with swirling, then the volume is adjusted to 20-30 mL with addition of OPGM. The cells are centrifuged at 200×g for 15 minutes at room temperature and all but approximately 3 mL of supernatant is removed to a new conical tube. The cells are suspended in the remaining supernatant and the volume is adjusted to 10-15 mL with OPGM added dropwise with swirling. […] The cells are resuspended in the remaining supernatant, counted, and the volume adjusted with an appropriate amount of OPGM to provide approximately 1×10^5 cells/mL. […] The absorbance of each well is read at 405 nm on Safire plate reader. The absorbance reading is plotted vs. concentration to provide the IC50 for each compound.

Compound `Clc1cnc2[nH]cc(Cc3ccc(NCc4ccc(Cl)nc4)nc3)c2c1` [Compound P-2003] has an IC50 of under 0.1 µM.

Source: patent publication US9096593B2, “Compounds and methods for kinase modulation, and indications therefor” (Plexxikon Inc., priority 2009, dated 2015)
